Experimental findings from US20010000523A1, “Carboxylated polymers complexes” (priority 1999, published 2001) are described below.

In this data set the test system is eye. As to the kind of experiment: Primary eye irritation, protocol FHSLA 16 CFR 1500.42. The data set is classed as in vivo. The settings on record: products tested at 25% actives. As to the method:
Eye irritation is a major concern in the formulation of personal care products, particularly when working with quats. Primary eye irritation was tested using the protocol outlined in FHSLA 16 CFR 1500.42. The products were tested at 25% actives.

SMILES strings stand for the structures.

Take `CCCCCCCCCCCCCCCCCC[N+](C)(C)C.[Cl-]` [Stearyl trimethyl ammonium chloride]: the Description result is listed as “Severely Irritating” and the Score was found to be 106.0.

In the case of `CCCCCCCCCCCCCCCCCC[N+](C)(C)Cc1ccccc1.[Cl-]` [Stearalkonium Chloride], the Description entry was “Severely Irritating” and the Score was found to be 116.5.
